For assay [1], the target named is T1, CB1 receptor (Mus musculus, UniProt P47746). The experiment in a line: [3H]SR141716 equilibrium radioligand binding. As to conditions: for remaining activity at 32 µM: 1.5 h, read-out: %[3H]SR141716 Binding ± S.E.; for effect on [3H]SR141716 binding (in words): 1 nM [3H]SR141716.
In assay [2] the target is T1, CB1 receptor. Put plainly: [3H]CP55,940 saturation binding in presence of allosteric modulator. As to conditions: Bmax of the radioligand at 10 μM of test compound; vehicle 1.56 ± 0.09.
Assay [3] concerns the target T1, CB1 receptor. The experiment in a line: Agonist-stimulated [35S]GTP-γ-S binding assay in mouse cerebellar membranes. It counts as biochemical.
Assay [4] deals with T1, CB1 receptor. Put plainly: [3H]CP55,940 equilibrium radioligand binding. Conditions: for [3H]CP55,940 Curve-fit top ± S.E.: mouse cerebellar membranes.
A further assay deals with human CB1 receptor (Homo sapiens, UniProt P21554). Put plainly: CB1 calcium mobilization assay. As to conditions: for IC50: CB1 Calcium assay IC50, against EC80 (100 nM) of CP55,940 in stable human CB1-CHO-RD-HGA16 cells, mean ± SEM; for fold reduction in potency compared to 1, CB1 calcium assay: relative to 1. It counts as cell-based.
Chain of human CB1 receptor (P21554 whole entry): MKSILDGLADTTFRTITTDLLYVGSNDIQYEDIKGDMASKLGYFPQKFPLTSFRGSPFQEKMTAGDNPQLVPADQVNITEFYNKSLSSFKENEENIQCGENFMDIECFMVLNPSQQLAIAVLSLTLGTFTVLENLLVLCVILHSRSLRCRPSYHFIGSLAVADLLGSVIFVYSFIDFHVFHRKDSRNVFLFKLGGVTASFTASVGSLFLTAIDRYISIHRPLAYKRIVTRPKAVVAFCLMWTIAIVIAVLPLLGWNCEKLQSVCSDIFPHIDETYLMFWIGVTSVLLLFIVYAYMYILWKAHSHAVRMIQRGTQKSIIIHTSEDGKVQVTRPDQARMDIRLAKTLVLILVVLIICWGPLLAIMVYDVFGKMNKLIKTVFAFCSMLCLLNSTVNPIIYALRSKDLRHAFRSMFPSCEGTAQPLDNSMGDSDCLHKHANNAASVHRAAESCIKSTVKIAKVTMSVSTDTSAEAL
For assay [5], the target named is uncoupled low affinity receptor (CB1). As to conditions: read-out: Ki for the uncoupled low affinity receptor; cited from earlier work.
Another assay concerns rats. Conditions: cited from earlier work.
For assay [6] the following is noted: in vivo; cited from earlier work.
For assay [7] the following is noted: cited from earlier work.

The values below come from PMC6426682 (ACS chemical neuroscience, 2018).

SMILES strings stand for the structures.

T1 sequence (P47746 whole entry): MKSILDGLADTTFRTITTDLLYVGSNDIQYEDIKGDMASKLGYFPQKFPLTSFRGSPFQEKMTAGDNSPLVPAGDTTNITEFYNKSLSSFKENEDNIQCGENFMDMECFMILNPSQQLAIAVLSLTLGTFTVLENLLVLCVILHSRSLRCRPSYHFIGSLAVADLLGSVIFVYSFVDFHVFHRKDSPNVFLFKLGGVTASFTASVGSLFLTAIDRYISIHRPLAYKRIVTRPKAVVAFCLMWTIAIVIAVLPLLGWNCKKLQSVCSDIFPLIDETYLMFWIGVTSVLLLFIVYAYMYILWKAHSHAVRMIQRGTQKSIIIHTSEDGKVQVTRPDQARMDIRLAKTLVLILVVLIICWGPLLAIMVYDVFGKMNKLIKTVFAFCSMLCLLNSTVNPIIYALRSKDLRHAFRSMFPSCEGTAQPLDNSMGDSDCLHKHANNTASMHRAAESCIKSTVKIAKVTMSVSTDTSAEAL

On to `O=C(Nc1ccc(Cl)cc1)Nc1cccc(-c2ccoc2)c1` [Compound 8, 3‐(4‐Chlorophenyl)‐1‐[3‐(furan‐3‐yl)phenyl]urea], for which, on CB1 receptor [1], the IC50 is 17.4 µM and the remaining activity at 32 µM is 34.9 ± 2.43%. In addition, the “[3H]CP55,940 Bmax ± S.E.” value at CB1 receptor [2] is given as 3.22 ± 0.19 pmol/mg. For the same compound, the “fold less potent than 1 in the GTP-γ-S assay” value at CB1 receptor [3] (relative to 1) is given as ~ 4 fold. The same compound showed an EC50 at CB1 receptor [4] of 7.41 µM. Moreover, the “[3H]CP55,940 Curve-fit top ± S.E.” value on CB1 receptor [4] (1 nM [3H]CP55,940) stood at 174.1 ± 8.86.
Take `Cn1cccc1-c1cccc(NC(=O)Nc2ccc(Cl)cc2)c1` [Compound 14, 3‐(4‐Chlorophenyl)‐1‐[3‐(1‐methyl‐1H‐pyrrol‐2‐yl)phenyl]urea]: at CB1 receptor [1], the IC50 was 17.8 µM and the remaining activity at 32 µM is 41.4 ± 3.26%. For the same compound, at human CB1 receptor, the IC50 was 0.165 to 0.169 µM and the “fold reduction in potency compared to 1, CB1 calcium assay” value (“fold reduction … CB1 calcium assay” below) is recorded as “about 3 fold”. In addition, the EC50 at CB1 receptor [4] was 5.62 µM. Moreover, the “[3H]CP55,940 Curve-fit top ± S.E.” value at CB1 receptor [4] (1 nM [3H]CP55,940) came to 164.5 ± 8.61.
On to `O=C(Nc1ccc(Cl)cc1)Nc1cccc(-c2ncc[nH]2)c1` [Compound 19, 3‐(4‐Chlorophenyl)‐1‐[3‐(1H‐imidazol‐2‐yl)phenyl]urea], for which, at CB1 receptor [1], the IC50 is 123 µM and the remaining activity at 32 µM came to 34.8 ± 8.94%. Further, the “fold reduction … CB1 calcium assay” value on human CB1 receptor is listed as “around 16 fold”. Also, at CB1 receptor [4], the EC50 was 10.2 µM. In addition, on CB1 receptor [4] (1 nM [3H]CP55,940), the “[3H]CP55,940 maximum binding level” value amounted to 355% and the “[3H]CP55,940 Curve-fit top ± S.E.” value is listed as 355.7 ± 27.39.
For the compound `O=C(Nc1ccc(Cl)cc1)Nc1cccc(-c2ccsc2)c1` [Compound 9, 3‐(4‐Chlorophenyl)‐1‐[3‐(thiophen‐3‐yl)phenyl]urea], at CB1 receptor [1], the IC50 is 11.2 µM and the remaining activity at 32 µM worked out at 20.4 ± 2.13%. At CB1 receptor [4], this compound gave an EC50 of 4.57 µM. Besides, the “[3H]CP55,940 Curve-fit top ± S.E.” value at CB1 receptor [4] (1 nM [3H]CP55,940) is recorded as 264.6 ± 9.81.
For `O=C(Nc1ccc(Cl)cc1)Nc1cccc(-c2cccs2)c1` [Compound 10, 3‐(4‐Chlorophenyl)‐1‐[3‐(thiophen‐2‐yl)phenyl]urea], on CB1 receptor [1], the IC50 was 28.8 µM and the remaining activity at 32 µM amounted to 45.54 ± 0.15%. Moreover, on CB1 receptor [4], the EC50 is 5.75 µM. In addition, on CB1 receptor [4] (1 nM [3H]CP55,940), the “[3H]CP55,940 Curve-fit top ± S.E.” value stood at 199.8 ± 8.78.
`CC(C)(C)OC(=O)n1cccc1-c1cccc(NC(=O)Nc2ccc(Cl)cc2)c1` [Compound 15]: at CB1 receptor [1], the IC50 was 8.51 µM and the remaining activity at 32 µM stood at 17.2 ± 4.12%. At human CB1 receptor, the IC50 was 3.44 ± 0.451 µM. The compound also displayed an IC50 at CB1 receptor [3] of 3.24 µM. At CB1 receptor [4], this compound showed an EC50 of 14.8 µM. At CB1 receptor [4] (1 nM [3H]CP55,940), the “effect on [3H]CP55,940 binding (in words)” value is given as “significantly decreased the binding of the radioligand” and the “[3H]CP55,940 Curve-fit top ± S.E.” value was found to be 15.5 ± 24.12.
As to `O=C(Nc1ccc(Cl)cc1)Nc1cccc(-c2ccc[nH]2)c1` [Compound 13, 3‐(4‐Chlorophenyl)‐1‐[3‐(1H‐pyrrol‐2‐yl)phenyl]urea], on CB1 receptor [1], the half-inhibitory concentration (IC50) was 14.1 µM and the remaining activity at 32 µM was found to be 26.6 ± 5.68%. Further, on CB1 receptor [2], the “[3H]CP55,940 Bmax ± S.E.” value is reported as 5.87 ± 0.15 pmol/mg. For the same compound, at human CB1 receptor, the IC50 was 0.165 to 0.169 µM and the “fold reduction … CB1 calcium assay” value is on record as “about 3 fold”. The compound further showed an EC50 at CB1 receptor [4] of 1.38 µM. In addition, on CB1 receptor [4] (1 nM [3H]CP55,940), the “[3H]CP55,940 maximum binding level” value is reported as 458% and the “[3H]CP55,940 Curve-fit top ± S.E.” value worked out at 458.3 ± 16.25. In addition, the “fold increase of [3H]CP55,940 binding level compared to 1” value on CB1 receptor [4] (relative to 1) was “more than 2 fold”.
Turning to `Cc1ccc(-c2cccc(NC(=O)Nc3ccc(Cl)cc3)c2)s1` [Compound 12, 3‐(4‐Chlorophenyl)‐1‐[3‐(5‐methylthiophen‐2‐yl)phenyl]urea], at CB1 receptor [1], the IC50 is 22.9 µM, the “effect on [3H]SR141716 binding (in words)” value is “only exhibited a slight reduction in [^3H]SR141716 binding” and the remaining activity at 32 µM was found to be 86.9 ± 5.87%. For the same compound, a half-maximal effect at CB1 receptor [4] (EC50) was put at 13.2 µM. In addition, the “[3H]CP55,940 Curve-fit top ± S.E.” value on CB1 receptor [4] (1 nM [3H]CP55,940) came to 233.3 ± 20.53.
As to `O=C(Nc1ccc(Cl)cc1)Nc1cccc(-c2nccs2)c1` [Compound 18, 3‐(4‐Chlorophenyl)‐1‐[3‐(1,3‐thiazol‐2‐yl)phenyl]urea], on CB1 receptor [1], the IC50 is 16.6 µM and the remaining activity at 32 µM was determined as 37.7 ± 0.76%. Besides, the half-maximal effective concentration (EC50) at CB1 receptor [4] is 5.13 µM. The “[3H]CP55,940 Curve-fit top ± S.E.” value at CB1 receptor [4] (1 nM [3H]CP55,940) worked out at 134.2 ± 4.47.
Regarding `CCCCCCC(C)(C)c1ccc([C@@H]2C[C@H](O)CC[C@H]2CCCO)c(O)c1` [CP55,940], the Ki in assay [5] was ~0.1 µM.
For `O=C(Nc1ccc(Cl)cc1)Nc1cccc(-c2cscn2)c1` [Compound 16, 3‐(4‐Chlorophenyl)‐1‐[3‐(1,3‐thiazol‐4‐yl)phenyl]urea], at CB1 receptor [1], the IC50 was 25.7 µM and the remaining activity at 32 µM stood at 44.3 ± 1.42%. In addition, the EC50 on CB1 receptor [4] was 10.7 µM. Besides, the “[3H]CP55,940 Curve-fit top ± S.E.” value on CB1 receptor [4] (1 nM [3H]CP55,940) is listed as 224.2 ± 15.85.
Take `Cc1cc(-c2cccc(NC(=O)Nc3ccc(Cl)cc3)c2)cs1` [Compound 11, 3‐(4‐Chlorophenyl)‐1‐[3‐(5‐methylthiophen‐3‐yl)phenyl]urea]: at CB1 receptor [1], the IC50 is 83.2 µM, the “effect on [3H]SR141716 binding (in words)” value was “only exhibited a slight reduction in [^3H]SR141716 binding” and the remaining activity at 32 µM was 73.2 ± 5.77%. In addition, the “[3H]CP55,940 Bmax ± S.E.” value on CB1 receptor [2] stood at 3.64 ± 0.17 pmol/mg. The “fold reduction in inhibitory potency on introduction of a methyl group, GTP-γ-S assay” value on CB1 receptor [3] (relative to the 3-thiophenyl analogue (9)) is listed as 5 fold. The same compound showed an EC50 on CB1 receptor [4] of 3.89 µM. The “[3H]CP55,940 Curve-fit top ± S.E.” value on CB1 receptor [4] (1 nM [3H]CP55,940) is on record as 226.0 ± 5.82.
Take `O=C(Nc1ccc(Cl)cc1)Nc1cccc(-c2cccc(N3CCCC3)n2)c1` [Compound 1, 1-(4-Chlorophenyl)-3-{3-[6-(pyrrolidin-1-yl)pyridin-2-yl]phenyl}urea, reference compound]: the “prime-induced reinstatement of extinguished cocaine-seeking behavior” value in the assay on rats is recorded as “attenuated prime-induced reinstatement of extinguished cocaine-seeking behavior in rats”. In addition, at CB1 receptor [1], the IC50 was 12.3 µM and the remaining activity at 32 µM came to 20.4 ± 3.05%. The “[3H]CP55,940 Bmax ± S.E.” value at CB1 receptor [2] is 4.53 ± 0.29 pmol/mg. Further, the “food intake and body weight” value in assay [6] was “demonstrated efficacy in reducing food intake and body weight”. The compound also showed an EC50 on CB1 receptor [4] of 2.04 µM. The “[3H]CP55,940 maximum binding level” value on CB1 receptor [4] (1 nM [3H]CP55,940) is reported as 256%. In addition, at CB1 receptor [4] (1.5 h, read-out: [3H]CP55,940 Curve-fit top ± S.E.), the Emax stood at 256 ± 5.59%. Also, in assay [7], the tetrahydrocannabinol-induced anti-nociception entry is recorded as “attenuated tetrahydrocannabinol-induced anti-nociception”.
`O=C(Nc1ccc(Cl)cc1)Nc1cccc(-c2cncs2)c1` [Compound 17, 3‐(4‐Chlorophenyl)‐1‐[3‐(1,3‐thiazol‐5‐yl)phenyl]urea]: at CB1 receptor [1], the IC50 was 2.95 µM and the remaining activity at 32 µM turned out to be 50.6 ± 2.04%. Moreover, the “[3H]CP55,940 Bmax ± S.E.” value at CB1 receptor [2] came to 3.57 ± 0.25 pmol/mg. The same compound had an EC50 on CB1 receptor [4] of 6.46 µM. For the same compound, the “[3H]CP55,940 Curve-fit top ± S.E.” value on CB1 receptor [4] (1 nM [3H]CP55,940) is 181.2 ± 8.15.
